We go through 13 molecules from ChEMBL document CHEMBL1201862, “PubChem BioAssay data set” (2004).

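Method: 48-hour compound exposure of cells in 96-well plates, five concentrations, linear interpolation of endpoints. Abbreviation: GI50, concentration required for 50% inhibition of growth.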 Active and inactive are the calls of the source. Cut-off read from the data, not from the text of the source: active = GI50 up to about 1.1 µM and inactive = higher. Bounds are passed on as bounds.

Among the test systems are UACC-257; HCC 2998; RPMI-8226; K562; MDA-MB-231; HCT-15; ACHN; CCRF-CEM; SNB-75; IGROV-1; NCI/ADR-RES; HOP-92; SN12C; NCI-H226; SF-295; HCT-116; RXF 393; SW-620; BT-549.
Assay in all cases: NCI-60 cell line screen, 48 h

As for `O=C1CC2CC(CC3(CO3)C2)C1F` (stereo not given), the GI50 is > 100 µM (inactive) in the assay on UACC-257; > 100 µM (inactive) in the assay with HCC 2998; > 100 µM (inactive) in the assay with RPMI-8226; > 100 µM (inactive) with K562; > 100 µM (inactive) with MDA-MB-231; above 100 µM in the assay with HCT-15. In addition, the GI50 was > 100 µM (inactive) in the assay with ACHN; > 100 µM (inactive) in the assay with CCRF-CEM; 48.2 µM (inactive) in the assay on SNB-75; > 100 µM (inactive) in the assay on IGROV-1; > 100 µM (inactive) in the assay with NCI/ADR-RES; 23 µM (inactive) in the assay with HOP-92. Moreover, the GI50 in the assay with SN12C, with NCI-H226, in the assay with SF-295, with HCT-116 and in the assay with RXF 393 was > 100 µM (inactive) each time.
With `CN(CCN1CCCC1)C1CCc2cc(Cl)c(Cl)cc2C1` (stereo not given), the GI50 was 16.4 µM (inactive) in the assay on UACC-257; 5.47 µM (inactive) in the assay on HCC 2998; 17.2 µM (inactive) in the assay on RPMI-8226; 21.8 µM (inactive) in the assay on K562; 17.6 µM (inactive) in the assay on MDA-MB-231; 13.2 µM in the assay on HCT-15. The GI50 in the assay on ACHN is 16.9 µM (inactive); with CCRF-CEM, 26.4 µM (inactive); in the assay on IGROV-1, 15.6 µM (inactive); with NCI/ADR-RES, 12.4 µM (inactive); in the assay with SN12C, 15.5 µM (inactive); in the assay with NCI-H226 it was 16.2 µM (inactive). In addition, the GI50 in the assay on SW-620 is 23.9 µM (inactive); in the assay on SF-295, 15.7 µM (inactive); in the assay with HCT-116 it was 12.5 µM (inactive); in the assay with BT-549, 14.9 µM (inactive).
As to `CCOC(=O)c1nc2cc(F)c(F)cc2nc1NCc1cc(OC)c(OC)c(OC)c1`, the GI50 in the assay on UACC-257 was > 100 µM (inactive); in the assay on HCT-15, above 100 µM; in the assay on ACHN, > 100 µM (inactive); in the assay with CCRF-CEM, > 100 µM (inactive); with SNB-75 it was 16.5 µM (inactive); in the assay with IGROV-1 it was > 100 µM (inactive). Besides, the GI50 in the assay with NCI/ADR-RES was > 100 µM (inactive); in the assay with HOP-92, 50.7 µM (inactive); in the assay with SN12C, > 100 µM (inactive); in the assay on SW-620 it was > 100 µM (inactive); in the assay with SF-295 it was > 100 µM (inactive); in the assay on HCT-116, > 100 µM (inactive). Moreover, the GI50 in the assay on RXF 393 is 30.1 µM (inactive); in the assay on BT-549, > 100 µM (inactive).
Turning to `O=C(NNC(=S)NCc1ccccc1)c1csc(NC(=S)NC2CCCCC2)n1`, the GI50 in the assay on UACC-257 is 18.6 µM (inactive); in the assay with HCC 2998 it was 37.3 µM (inactive); in the assay on RPMI-8226 it was 25.9 µM (inactive); in the assay on MDA-MB-231, 44.9 µM (inactive); in the assay with HCT-15, 37.5 µM; with ACHN, 38.2 µM (inactive). The GI50 with CCRF-CEM was 46.2 µM (inactive); with IGROV-1, 31.3 µM (inactive); with NCI/ADR-RES, 31.3 µM (inactive); with SN12C, 34.4 µM (inactive); in the assay on NCI-H226, 5.93 µM (inactive); in the assay on SW-620, 32.5 µM (inactive). Besides, the GI50 is 42.1 µM (inactive) in the assay with SF-295, 22.3 µM (inactive) in the assay on HCT-116 and 36.9 µM (inactive) with BT-549.
On to `CCOC(=O)CCC(NC(=O)OCc1ccccc1)C(=O)NC(CCC(=O)OCC)C(=O)NC(CCC(=O)OCC)C(=O)NNC(=O)OC(C)(C)C` (stereo not given), for which the GI50 is > 100 µM (inactive) in the assay on UACC-257; > 100 µM (inactive) in the assay on HCC 2998; > 100 µM (inactive) in the assay on RPMI-8226; > 100 µM (inactive) in the assay on K562; > 100 µM (inactive) in the assay on MDA-MB-231; above 100 µM in the assay on HCT-15. For the same molecule, the GI50 was > 100 µM (inactive) in the assay on ACHN; 49 µM (inactive) in the assay with CCRF-CEM; > 100 µM (inactive) with SNB-75; > 100 µM (inactive) in the assay on IGROV-1; > 100 µM (inactive) in the assay with HOP-92; > 100 µM (inactive) with SN12C. Besides, the GI50 in the assay with NCI-H226, in the assay on SW-620, in the assay with HCT-116, in the assay on RXF 393 and with BT-549 was > 100 µM (inactive) in each case.
Consider `COc1cc(C(C)c2cc3c(cc2OCCN)OCO3)cc(OC)c1OC` (stereo not given), for which the GI50 with UACC-257 is 6.7 µM (inactive); in the assay with HCC 2998, > 100 µM (inactive); in the assay on RPMI-8226, 37.3 µM (inactive); in the assay on K562 it was > 100 µM (inactive); in the assay with HCT-15 it was above 100 µM; in the assay on ACHN it was > 100 µM (inactive). Further, the GI50 with CCRF-CEM is 35.2 µM (inactive); with SNB-75, 18.5 µM (inactive); with IGROV-1 it was > 100 µM (inactive); with SN12C it was > 100 µM (inactive); with NCI-H226, 32.1 µM (inactive); in the assay with SW-620, > 100 µM (inactive). Also, the GI50 with SF-295 was > 100 µM (inactive); in the assay with HCT-116, > 100 µM (inactive); in the assay on RXF 393, 21.8 µM (inactive).
On to `Cc1cc(OC(=O)Nc2cccc3ccccc23)c(C(C)C)cc1C(=S)Nc1ccccc1`, for which the GI50 with UACC-257 is 18.7 µM (inactive); in the assay with HCC 2998, 20.6 µM (inactive); in the assay with RPMI-8226, 21.1 µM (inactive); with K562 it was 5.77 µM (inactive); with HCT-15, 10.9 µM; in the assay on ACHN, 24.2 µM (inactive). The GI50 is 7.6 µM (inactive) in the assay on CCRF-CEM; 13.6 µM (inactive) with IGROV-1; 16.6 µM (inactive) in the assay with NCI/ADR-RES; 16.8 µM (inactive) with SW-620; 0.0608 µM (active) with SF-295; 17.8 µM (inactive) in the assay on HCT-116. Also, in the assay with BT-549, the GI50 is 12.1 µM (inactive).
Turning to `C=CC1CN(C(=O)OCC)N(C(=O)OCC)C1CCc1ccccc1` (stereo not given), the GI50 in the assay with UACC-257 was > 100 µM (inactive); in the assay with HCC 2998 it was > 100 µM (inactive); with RPMI-8226, 30.9 µM (inactive); in the assay with K562, 50.8 µM (inactive); in the assay with MDA-MB-231 it was > 100 µM (inactive); in the assay with HCT-15, 65.5 µM. Moreover, the GI50 in the assay with ACHN is > 100 µM (inactive); with CCRF-CEM, 72.4 µM (inactive); in the assay with SNB-75, 68.9 µM (inactive); with IGROV-1, 81.8 µM (inactive); in the assay with NCI/ADR-RES it was 85.1 µM (inactive); in the assay with HOP-92, 53.5 µM (inactive). Besides, the GI50 in the assay with SN12C was > 100 µM (inactive); in the assay on NCI-H226, > 100 µM (inactive); in the assay on SF-295, 58.6 µM (inactive); with HCT-116, 67.1 µM (inactive).
As for `Cc1c2c(ccc3ccccc32)c[n+]2ccccc12`, the GI50 in the assay with UACC-257 was 10.2 µM (inactive); in the assay with HCC 2998 it was 9.46 µM (inactive); in the assay with RPMI-8226, 32.1 µM (inactive); in the assay on K562, 11.6 µM (inactive); in the assay with HCT-15, 86.9 µM; with ACHN, 44.4 µM (inactive). In addition, the GI50 was 11 µM (inactive) in the assay on CCRF-CEM; 4.21 µM (inactive) in the assay with SNB-75; 40.6 µM (inactive) in the assay with HOP-92; 5.3 µM (inactive) in the assay on NCI-H226; 5.5 µM (inactive) in the assay with SW-620; 3.78 µM (inactive) in the assay with SF-295. Besides, in the assay with HCT-116, the GI50 is 21.8 µM (inactive).
Consider `CC(Nc1ccc(Cl)cc1)c1ccncc1` (stereo not given), for which the GI50 with UACC-257 is 55.7 µM (inactive); with HCC 2998, > 100 µM (inactive); in the assay with RPMI-8226, 12.4 µM (inactive); with K562, 75.3 µM (inactive); with HCT-15 it was above 100 µM; in the assay on ACHN it was > 100 µM (inactive). The GI50 was 83.9 µM (inactive) in the assay on CCRF-CEM; > 100 µM (inactive) in the assay with SNB-75; 62.5 µM (inactive) in the assay on IGROV-1; 61.5 µM (inactive) in the assay with NCI/ADR-RES; > 100 µM (inactive) with SN12C; > 100 µM (inactive) in the assay with NCI-H226. Also, the GI50 is > 100 µM (inactive) with SW-620; 72.6 µM (inactive) in the assay on SF-295; 53.3 µM (inactive) with HCT-116; 41.8 µM (inactive) in the assay with RXF 393; > 100 µM (inactive) in the assay with BT-549.
For `CC(=O)/C(=C\Nc1c(C)n(C)n(C)c1=O)C(=O)c1ccccc1`, the GI50 with UACC-257 was > 50 µM (inactive); in the assay on HCC 2998, > 50 µM (inactive); in the assay on RPMI-8226, > 50 µM (inactive); with K562 it was > 50 µM (inactive); in the assay on MDA-MB-231 it was > 50 µM (inactive); in the assay on HCT-15, above 50 µM. In addition, the GI50 in the assay with ACHN is > 50 µM (inactive); in the assay with CCRF-CEM it was > 50 µM (inactive); in the assay on IGROV-1, > 50 µM (inactive); with HOP-92, 26.5 µM (inactive); with SN12C, > 50 µM (inactive); in the assay with NCI-H226, > 50 µM (inactive). For the same molecule, the GI50 in the assay on SW-620, in the assay with SF-295, with HCT-116, with RXF 393 and with BT-549 was > 50 µM (inactive) each time.
For the molecule `CSc1cnn(CCC#N)c(=O)n1`, the GI50 in the assay on UACC-257 is 62.5 µM (inactive); with HCC 2998, > 100 µM (inactive); with RPMI-8226 it was > 100 µM (inactive); in the assay with K562, 33.1 µM (inactive); with MDA-MB-231, > 100 µM (inactive); in the assay on HCT-15, above 10 µM. The GI50 with ACHN is > 100 µM (inactive); with CCRF-CEM, 31 µM (inactive); with SNB-75, 84.9 µM (inactive); in the assay with IGROV-1 it was > 100 µM (inactive); with SN12C it was > 100 µM (inactive); with NCI-H226, > 100 µM (inactive). Besides, the GI50 with SW-620 is 74.6 µM (inactive); with SF-295 it was > 100 µM (inactive); in the assay on HCT-116 it was > 100 µM (inactive); with RXF 393, > 100 µM (inactive); with BT-549, > 100 µM (inactive).
On to `CNC(=O)OCc1c(COC(=O)NC)c(C)n(-c2ccc(Br)cc2)c1C`, for which the GI50 in the assay on UACC-257 was 15.3 µM (inactive); in the assay with HCC 2998, 15.2 µM (inactive); in the assay with RPMI-8226, 11 µM (inactive); with K562 it was 15.8 µM (inactive); in the assay with MDA-MB-231 it was 13.9 µM (inactive); in the assay on HCT-15, 14 µM. Further, the GI50 was 3.26 µM (inactive) in the assay on ACHN; 4.85 µM (inactive) in the assay with CCRF-CEM; 4.17 µM (inactive) with SNB-75; 3.98 µM (inactive) with IGROV-1; 16.3 µM (inactive) with NCI/ADR-RES; 7.76 µM (inactive) in the assay on HOP-92. Further, the GI50 with SN12C is 9.16 µM (inactive); in the assay on NCI-H226, 1.24 µM (inactive); in the assay on SW-620, 10.7 µM (inactive); in the assay with SF-295 it was 13.1 µM (inactive); in the assay on HCT-116 it was 10.8 µM (inactive); in the assay with RXF 393 it was 5.37 µM (inactive).
